Measured values from US20100041089A1, “IMPROVED METHOD FOR DETECTING CHEMICAL […]” (priority 2006, published 2010).

System: yeast genes (expressed mRNA)
Assay: DNA chip measurement of expressed mRNA of yeast genes after culture with a toxic chemical substance
Assay type: cell-based, Saccharomyces cerevisiae S288C
Settings: for level of expressed mRNA in the presence of chemical substance / level in the absence of chemical substance: cultured two hours with the chemical substance; for The level of expressed mRNA in the presence of chemical substance/The level of expressed mRNA in the absence of chemical substance: cultured two hours with substance
Summary of the method: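 Yeast S288C, YPD 25° C; toxicant at log phase, 2 h, sublethal growth-inhibiting conc.; no-chemical control. Hot SDS/acetate RNA extraction, oligo-dT mRNA, Cy3/Cy5-dUTP RT. Whole-genome chip, 65° C >12 h. Readout: treated/control intensity ratio, ≥2 significant.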

[Cl][Pb][Cl] [(4), PbCl2] was tested. Which “level of expressed mRNA in the presence of chemical substance / level in the absence of chemical substance” value (yeast gene YNL058C) did it give?
The value was 1.7.

What about the “level of expressed mRNA in the presence of chemical substance / level in the absence of chemical substance” value (yeast gene YNL063W) of the same compound?
The value was 1.4.

And the “The level of expressed mRNA in the presence of chemical substance/The level of expressed mRNA in the absence of chemical substance” value (yeast gene YNL074C)?
The value was 1.2.

What about the “The level of expressed mRNA in the presence of chemical substance/The level of expressed mRNA in the absence of chemical substance” value (yeast gene YNL092W) of the same compound?
Its value is 1.8.

And the “The level of expressed mRNA in the presence of chemical substance/The level of expressed mRNA in the absence of chemical substance” value (yeast gene YNL115C)?
The value was 1.4.

And the “The level of expressed mRNA in the presence of chemical substance/The level of expressed mRNA in the absence of chemical substance” value (yeast gene YNL156C)?
Its value is 1.3.

And the “level of expressed mRNA in the presence of chemical substance / level in the absence of chemical substance” value (yeast gene YNL176C)?
Its value is 1.0.

What about the “level of expressed mRNA in the presence of chemical substance / level in the absence of chemical substance” value (yeast gene YNL194C) of the same compound?
The value was 15.2.

What about the “level of expressed mRNA in the presence of chemical substance / level in the absence of chemical substance” value (yeast gene YNL200C) of the same compound?
The value was 2.0.

And the “The level of expressed mRNA in the presence of chemical substance/The level of expressed mRNA in the absence of chemical substance” value (yeast gene YNL234W)?
The value was 1.8.

And the “level of expressed mRNA in the presence of chemical substance / level in the absence of chemical substance” value (yeast gene YNL253W)?
Its value is 1.0.

What about the “level of expressed mRNA in the presence of chemical substance / level in the absence of chemical substance” value (yeast gene YNL276C) of the same compound?
Its value is 0.3.

And the “The level of expressed mRNA in the presence of chemical substance/The level of expressed mRNA in the absence of chemical substance” value (yeast gene YNL281W)?
The value was 1.4.

What about the “The level of expressed mRNA in the presence of chemical substance/The level of expressed mRNA in the absence of chemical substance” value (yeast gene YNL305C) of the same compound?
Its value is 1.4.

And the “level of expressed mRNA in the presence of chemical substance / level in the absence of chemical substance” value (yeast gene YNR051C)?
Its value is 0.6.

And the “The level of expressed mRNA in the presence of chemical substance/The level of expressed mRNA in the absence of chemical substance” value (yeast gene YNR068C)?
Its value is 2.6.

What about the “level of expressed mRNA in the presence of chemical substance / level in the absence of chemical substance” value (yeast gene YOL026C) of the same compound?
The value was 1.4.

What about the “The level of expressed mRNA in the presence of chemical substance/The level of expressed mRNA in the absence of chemical substance” value (yeast gene YOL032W) of the same compound?
Its value is 1.3.

And the “The level of expressed mRNA in the presence of chemical substance/The level of expressed mRNA in the absence of chemical substance” value (yeast gene YOL036W)?
Its value is 0.8.

What about the “The level of expressed mRNA in the presence of chemical substance/The level of expressed mRNA in the absence of chemical substance” value (yeast gene YOL047C) of the same compound?
The value was 2.5.

And the “The level of expressed mRNA in the presence of chemical substance/The level of expressed mRNA in the absence of chemical substance” value (yeast gene YOL071W)?
Its value is 2.0.

What about the “The level of expressed mRNA in the presence of chemical substance/The level of expressed mRNA in the absence of chemical substance” value (yeast gene YOL082W) of the same compound?
The value was 2.1.

What about the “The level of expressed mRNA in the presence of chemical substance/The level of expressed mRNA in the absence of chemical substance” value (yeast gene YOL083W) of the same compound?
Its value is 2.8.

What about the “The level of expressed mRNA in the presence of chemical substance/The level of expressed mRNA in the absence of chemical substance” value (yeast gene YOL117W) of the same compound?
Its value is 1.4.

What about the “The level of expressed mRNA in the presence of chemical substance/The level of expressed mRNA in the absence of chemical substance” value (yeast gene YOL131W) of the same compound?
Its value is 1.0.

And the “The level of expressed mRNA in the presence of chemical substance/The level of expressed mRNA in the absence of chemical substance” value (yeast gene YOL150C)?
The value was 0.9.

And the “The level of expressed mRNA in the presence of chemical substance/The level of expressed mRNA in the absence of chemical substance” value (yeast gene YOL162W)?
Its value is 1.4.

What about the “The level of expressed mRNA in the presence of chemical substance/The level of expressed mRNA in the absence of chemical substance” value (yeast gene YOR019W) of the same compound?
Its value is 4.7.

What about the “level of expressed mRNA in the presence of chemical substance / level in the absence of chemical substance” value (yeast gene YOR022C) of the same compound?
Its value is 1.2.

What about the “level of expressed mRNA in the presence of chemical substance / level in the absence of chemical substance” value (yeast gene YOR087W) of the same compound?
Its value is 1.3.

What about the “level of expressed mRNA in the presence of chemical substance / level in the absence of chemical substance” value (yeast gene YOR138C) of the same compound?
The value was 0.8.

And the “The level of expressed mRNA in the presence of chemical substance/The level of expressed mRNA in the absence of chemical substance” value (yeast gene YOR197W)?
Its value is 1.4.

What about the “level of expressed mRNA in the presence of chemical substance / level in the absence of chemical substance” value (yeast gene YOR253W) of the same compound?
The value was 1.4.

What about the “level of expressed mRNA in the presence of chemical substance / level in the absence of chemical substance” value (yeast gene YOR267C) of the same compound?
Its value is 0.9.

And the “level of expressed mRNA in the presence of chemical substance / level in the absence of chemical substance” value (yeast gene YOR325W)?
Its value is 0.3.

What about the “level of expressed mRNA in the presence of chemical substance / level in the absence of chemical substance” value (yeast gene YPL005W) of the same compound?
The value was 1.0.

What about the “The level of expressed mRNA in the presence of chemical substance/The level of expressed mRNA in the absence of chemical substance” value (yeast gene YPL087W) of the same compound?
The value was 7.3.

What about the “level of expressed mRNA in the presence of chemical substance / level in the absence of chemical substance” value (yeast gene YPL150W) of the same compound?
Its value is 0.9.

What about the “level of expressed mRNA in the presence of chemical substance / level in the absence of chemical substance” value (yeast gene YPL152W) of the same compound?
Its value is 1.8.

What about the “level of expressed mRNA in the presence of chemical substance / level in the absence of chemical substance” value (yeast gene YPL168W) of the same compound?
Its value is 1.4.

And the “level of expressed mRNA in the presence of chemical substance / level in the absence of chemical substance” value (yeast gene YPL180W)?
The value was 0.6.

What about the “level of expressed mRNA in the presence of chemical substance / level in the absence of chemical substance” value (yeast gene YPL188W) of the same compound?
The value was 1.0.

What about the “The level of expressed mRNA in the presence of chemical substance/The level of expressed mRNA in the absence of chemical substance” value (yeast gene YPL196W) of the same compound?
The value was 1.7.

What about the “The level of expressed mRNA in the presence of chemical substance/The level of expressed mRNA in the absence of chemical substance” value (yeast gene YPL206C) of the same compound?
Its value is 1.9.

What about the “level of expressed mRNA in the presence of chemical substance / level in the absence of chemical substance” value (yeast gene YPL221W) of the same compound?
The value was 1.8.

And the “The level of expressed mRNA in the presence of chemical substance/The level of expressed mRNA in the absence of chemical substance” value (yeast gene YPL222W)?
Its value is 1.3.

And the “level of expressed mRNA in the presence of chemical substance / level in the absence of chemical substance” value (yeast gene YPL225W)?
The value was 1.6.

And the “The level of expressed mRNA in the presence of chemical substance/The level of expressed mRNA in the absence of chemical substance” value (yeast gene YPR023C)?
The value was 0.8.

And the “level of expressed mRNA in the presence of chemical substance / level in the absence of chemical substance” value (yeast gene YPR049C)?
The value was 1.0.

What about the “level of expressed mRNA in the presence of chemical substance / level in the absence of chemical substance” value (yeast gene YPR146C) of the same compound?
Its value is 0.9.

And the “level of expressed mRNA in the presence of chemical substance / level in the absence of chemical substance” value (yeast gene YPR148C)?
Its value is 1.3.

What about the “The level of expressed mRNA in the presence of chemical substance/The level of expressed mRNA in the absence of chemical substance” value (yeast gene YPR151C) of the same compound?
Its value is 4.1.

What about the “level of expressed mRNA in the presence of chemical substance / level in the absence of chemical substance” value (yeast gene YPR172W) of the same compound?
The value was 1.2.
